± gives the expanded uncertainty stated by the source.
Assay: xn = mol fraction of the nth substance listed
Conditions: Gas, Buoyancy - hydrostatic balance with magnetic suspension - one sinker

## [HH] [hydrogen] + N#N
240.05 K, 998 kPa, x2 = 0.95
  mass density: 13.46 ± 0.073 kg/m3
240.05 K, 1997 kPa, x2 = 0.95
  mass density: 27.15 ± 0.074 kg/m3
240.05 K, 2999 kPa, x2 = 0.95
  mass density: 41.055 ± 0.075 kg/m3
240.05 K, 3998 kPa, x2 = 0.95
  mass density: 55.055 ± 0.077 kg/m3
240.05 K, 4998 kPa, x2 = 0.95
  mass density: 69.19 ± 0.078 kg/m3
240.05 K, 5999 kPa, x2 = 0.95
  mass density: 83.412 ± 0.079 kg/m3
240.05 K, 7000 kPa, x2 = 0.95
  mass density: 97.671 ± 0.08 kg/m3
240.05 K, 8000 kPa, x2 = 0.95
  mass density: 111.894 ± 0.081 kg/m3
240.05 K, 9001 kPa, x2 = 0.95
  mass density: 126.079 ± 0.082 kg/m3
240.05 K, 10004 kPa, x2 = 0.95
  mass density: 140.187 ± 0.082 kg/m3
240.05 K, 11004 kPa, x2 = 0.95
  mass density: 154.093 ± 0.083 kg/m3
240.05 K, 12006 kPa, x2 = 0.95
  mass density: 167.817 ± 0.082 kg/m3
240.05 K, 13008 kPa, x2 = 0.95
  mass density: 181.315 ± 0.083 kg/m3
240.05 K, 14010 kPa, x2 = 0.95
  mass density: 194.555 ± 0.083 kg/m3
240.05 K, 15014 kPa, x2 = 0.95
  mass density: 207.511 ± 0.083 kg/m3
240.05 K, 16011 kPa, x2 = 0.95
  mass density: 220.048 ± 0.083 kg/m3
240.05 K, 17007 kPa, x2 = 0.95
  mass density: 232.236 ± 0.083 kg/m3
240.05 K, 18019 kPa, x2 = 0.95
  mass density: 244.268 ± 0.083 kg/m3
240.05 K, 19018 kPa, x2 = 0.95
  mass density: 255.783 ± 0.083 kg/m3
240.05 K, 19977 kPa, x2 = 0.95
  mass density: 266.493 ± 0.084 kg/m3
240.07 K, 998 kPa, x2 = 0.9
  mass density: 12.789 ± 0.07 kg/m3
240.07 K, 999 kPa, x2 = 0.5001
  mass density: 7.515 ± 0.045 kg/m3
240.07 K, 1998 kPa, x2 = 0.9
  mass density: 25.761 ± 0.07 kg/m3
240.07 K, 2000 kPa, x2 = 0.5001
  mass density: 14.997 ± 0.045 kg/m3
240.07 K, 3000 kPa, x2 = 0.9
  mass density: 38.902 ± 0.072 kg/m3
240.07 K, 3998 kPa, x2 = 0.9
  mass density: 52.1 ± 0.073 kg/m3
240.07 K, 3999 kPa, x2 = 0.5001
  mass density: 29.835 ± 0.046 kg/m3
240.07 K, 4998 kPa, x2 = 0.5001
  mass density: 37.187 ± 0.046 kg/m3
240.07 K, 4998 kPa, x2 = 0.9
  mass density: 65.397 ± 0.074 kg/m3
240.07 K, 5999 kPa, x2 = 0.5001
  mass density: 44.484 ± 0.046 kg/m3
240.07 K, 5999 kPa, x2 = 0.9
  mass density: 78.743 ± 0.075 kg/m3
240.07 K, 6999 kPa, x2 = 0.5001
  mass density: 51.715 ± 0.047 kg/m3
240.07 K, 6999 kPa, x2 = 0.9
  mass density: 92.089 ± 0.076 kg/m3
240.07 K, 8000 kPa, x2 = 0.9
  mass density: 105.416 ± 0.076 kg/m3
240.07 K, 9001 kPa, x2 = 0.9
  mass density: 118.665 ± 0.077 kg/m3
240.07 K, 10003 kPa, x2 = 0.9
  mass density: 131.826 ± 0.077 kg/m3
240.07 K, 11003 kPa, x2 = 0.9
  mass density: 144.806 ± 0.078 kg/m3
240.07 K, 12006 kPa, x2 = 0.9
  mass density: 157.633 ± 0.078 kg/m3
240.07 K, 13007 kPa, x2 = 0.9
  mass density: 170.235 ± 0.079 kg/m3
240.07 K, 14004 kPa, x2 = 0.9
  mass density: 182.528 ± 0.078 kg/m3
240.07 K, 15010 kPa, x2 = 0.9
  mass density: 194.68 ± 0.078 kg/m3
240.07 K, 16012 kPa, x2 = 0.9
  mass density: 206.497 ± 0.079 kg/m3
240.07 K, 17016 kPa, x2 = 0.9
  mass density: 218.039 ± 0.079 kg/m3
240.07 K, 18009 kPa, x2 = 0.9
  mass density: 229.14 ± 0.079 kg/m3
240.07 K, 19021 kPa, x2 = 0.9
  mass density: 240.134 ± 0.079 kg/m3
240.07 K, 19857 kPa, x2 = 0.9
  mass density: 248.956 ± 0.08 kg/m3
240.08 K, 2989 kPa, x2 = 0.5001
  mass density: 22.354 ± 0.046 kg/m3
240.08 K, 7999 kPa, x2 = 0.5001
  mass density: 58.867 ± 0.047 kg/m3
240.08 K, 8999 kPa, x2 = 0.5001
  mass density: 65.94 ± 0.048 kg/m3
240.08 K, 10002 kPa, x2 = 0.5001
  mass density: 72.937 ± 0.048 kg/m3
240.08 K, 11003 kPa, x2 = 0.5001
  mass density: 79.831 ± 0.048 kg/m3
240.08 K, 17004 kPa, x2 = 0.5001
  mass density: 118.935 ± 0.051 kg/m3
240.08 K, 18010 kPa, x2 = 0.5001
  mass density: 125.09 ± 0.051 kg/m3
240.08 K, 19066 kPa, x2 = 0.5001
  mass density: 131.423 ± 0.051 kg/m3
240.09 K, 12008 kPa, x2 = 0.5001
  mass density: 86.648 ± 0.049 kg/m3
240.09 K, 13002 kPa, x2 = 0.5001
  mass density: 93.298 ± 0.049 kg/m3
240.09 K, 14003 kPa, x2 = 0.5001
  mass density: 99.881 ± 0.05 kg/m3
240.09 K, 15003 kPa, x2 = 0.5001
  mass density: 106.346 ± 0.05 kg/m3
240.09 K, 16007 kPa, x2 = 0.5001
  mass density: 112.717 ± 0.05 kg/m3
250.02 K, 998 kPa, x2 = 0.95
  mass density: 12.909 ± 0.07 kg/m3
250.02 K, 1998 kPa, x2 = 0.95
  mass density: 25.981 ± 0.071 kg/m3
250.02 K, 2999 kPa, x2 = 0.95
  mass density: 39.211 ± 0.072 kg/m3
250.02 K, 3999 kPa, x2 = 0.95
  mass density: 52.525 ± 0.073 kg/m3
250.02 K, 4999 kPa, x2 = 0.95
  mass density: 65.908 ± 0.074 kg/m3
250.02 K, 5999 kPa, x2 = 0.95
  mass density: 79.318 ± 0.075 kg/m3
250.02 K, 6999 kPa, x2 = 0.95
  mass density: 92.739 ± 0.076 kg/m3
250.02 K, 8001 kPa, x2 = 0.95
  mass density: 106.147 ± 0.077 kg/m3
250.02 K, 9002 kPa, x2 = 0.95
  mass density: 119.485 ± 0.077 kg/m3
250.02 K, 9998 kPa, x2 = 0.95
  mass density: 132.641 ± 0.078 kg/m3
250.02 K, 11003 kPa, x2 = 0.95
  mass density: 145.769 ± 0.078 kg/m3
250.02 K, 12002 kPa, x2 = 0.95
  mass density: 158.648 ± 0.078 kg/m3
250.02 K, 13002 kPa, x2 = 0.95
  mass density: 171.33 ± 0.079 kg/m3
250.02 K, 14006 kPa, x2 = 0.95
  mass density: 183.836 ± 0.079 kg/m3
250.02 K, 15009 kPa, x2 = 0.95
  mass density: 196.059 ± 0.079 kg/m3
250.02 K, 16008 kPa, x2 = 0.95
  mass density: 207.967 ± 0.079 kg/m3
250.02 K, 17012 kPa, x2 = 0.95
  mass density: 219.644 ± 0.079 kg/m3
250.02 K, 18015 kPa, x2 = 0.95
  mass density: 231.002 ± 0.08 kg/m3
250.02 K, 19020 kPa, x2 = 0.95
  mass density: 242.075 ± 0.08 kg/m3
250.02 K, 19863 kPa, x2 = 0.95
  mass density: 251.12 ± 0.083 kg/m3
250.03 K, 999 kPa, x2 = 0.5001
  mass density: 7.213 ± 0.043 kg/m3
250.03 K, 1999 kPa, x2 = 0.5001
  mass density: 14.386 ± 0.044 kg/m3
250.03 K, 2988 kPa, x2 = 0.5001
  mass density: 21.436 ± 0.044 kg/m3
250.03 K, 3998 kPa, x2 = 0.5001
  mass density: 28.596 ± 0.044 kg/m3
250.03 K, 4998 kPa, x2 = 0.5001
  mass density: 35.626 ± 0.045 kg/m3
250.04 K, 998 kPa, x2 = 0.9
  mass density: 12.26 ± 0.067 kg/m3
250.04 K, 1998 kPa, x2 = 0.9
  mass density: 24.659 ± 0.068 kg/m3
250.04 K, 2987 kPa, x2 = 0.9
  mass density: 37.024 ± 0.069 kg/m3
250.04 K, 3998 kPa, x2 = 0.9
  mass density: 49.722 ± 0.07 kg/m3
250.04 K, 4998 kPa, x2 = 0.9
  mass density: 62.325 ± 0.07 kg/m3
250.04 K, 5999 kPa, x2 = 0.5001
  mass density: 42.6 ± 0.045 kg/m3
250.04 K, 5999 kPa, x2 = 0.9
  mass density: 74.953 ± 0.071 kg/m3
250.04 K, 6999 kPa, x2 = 0.5001
  mass density: 49.504 ± 0.046 kg/m3
250.04 K, 6999 kPa, x2 = 0.9
  mass density: 87.557 ± 0.072 kg/m3
250.04 K, 7999 kPa, x2 = 0.5001
  mass density: 56.336 ± 0.046 kg/m3
250.04 K, 8000 kPa, x2 = 0.9
  mass density: 100.114 ± 0.073 kg/m3
250.04 K, 8999 kPa, x2 = 0.5001
  mass density: 63.085 ± 0.046 kg/m3
250.04 K, 9001 kPa, x2 = 0.9
  mass density: 112.6 ± 0.073 kg/m3
250.04 K, 9995 kPa, x2 = 0.9
  mass density: 124.895 ± 0.074 kg/m3
250.04 K, 9999 kPa, x2 = 0.5001
  mass density: 69.753 ± 0.046 kg/m3

Source: the NIST ThermoML archive (doi:10.1021/acs.jced.7b00694)
